Data published in PubChem BioAssay (NCI).
Values joined by “and” are separate entries in the source; they are usually repeats but may differ in a detail not shown here. Equal values may be shown once.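 Exposure lasted 48 hours, with cells grown in 96-well plates and compounds tested at five concentrations. The concentration for 50% growth inhibition is given as GI50. TGI is the concentration that stops growth completely.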

Assays:
Experiment in all cases: NCI-60 cell line screen, 48 h
786-0 renal = tested on: 786-0 renal
A549 NSCLC = tested on: A549 NSCLC
DU-145 prostate = tested on: DU-145 prostate
NCI-H522 lung = tested on: NCI-H522 lung
OVCAR-5 ovarian = tested on: OVCAR-5 ovarian
RPMI-8226 leukemia = tested on: RPMI-8226 leukemia
RXF 393 renal = tested on: RXF 393 renal
SK-MEL-28 melanoma = tested on: SK-MEL-28 melanoma
SK-OV-3 ovarian = tested on: SK-OV-3 ovarian
SNB-19 CNS = tested on: SNB-19 CNS

Row | SMILES | GI50 (786-0 renal) [µM] | TGI (786-0 renal) | GI50 (A549 NSCLC) | TGI (A549 NSCLC) | GI50 (DU-145 prostate) [µM] | TGI (DU-145 prostate) [µM] | GI50 (NCI-H522 lung) | TGI (NCI-H522 lung) | GI50 (OVCAR-5 ovarian) [µM] | TGI (OVCAR-5 ovarian) | GI50 (RPMI-8226 leukemia) [µM] | TGI (RPMI-8226 leukemia) | GI50 (RXF 393 renal) | TGI (RXF 393 renal) | GI50 (SK-MEL-28 melanoma) | TGI (SK-MEL-28 melanoma) | GI50 (SK-OV-3 ovarian) | TGI (SK-OV-3 ovarian) | GI50 (SNB-19 CNS) [µM] | TGI (SNB-19 CNS)
1 | NC(=O)c1ncn(C2OC(CO)C(O)C2O)c1N (stereo not drawn) | > 100 | > 100 µM | > 100 µM | > 100 µM | 72.2 | > 100 | > 100 µM | > 100 µM | > 100 | > 100 µM | > 100 | > 100 µM | > 100 µM | > 100 µM | > 100 µM | > 100 µM | > 100 µM | > 100 µM | > 100 | > 100 µM
2 | C=C1CC/C=C(\C)CC[C@H](C(=C)C)[C@@H](O)/C=C(/CO)CCC1O (stereo partly drawn) | > 100 | > 100 µM | 74.4 µM | > 100 µM | 93.2 | > 100 | 60.7 µM | > 100 µM | > 100 | > 100 µM | 32 | 71.6 µM | 89.9 µM | > 100 µM | > 100 µM | > 100 µM | > 100 µM | > 100 µM | > 100 | > 100 µM
3 | O=C(N/N=C/c1ccc(F)cc1)c1ccc(C(F)(F)F)nc1Nc1cccc(C(F)(F)F)c1 | 0.691 | 4.62 µM | 2.29 µM | 6.15 µM | 0.444 | 1.88 | 1.61 µM | 4.54 µM | 1.34 | 9.12 µM | 1.07 | 3.34 µM | 0.457 µM | 2.72 µM | 1.79 µM | 7.92 µM | 1.17 µM | 4.56 µM | 1.51 | 7.99 µM
4 | Cn1ccnc1C(=O)/C=C/c1ccc(C(=O)Nc2c(F)c(F)c(F)c(F)c2F)cc1 | 1.83 | 3.62 µM | 1.79 µM | 4.16 µM | 1.64 | 3.11 | 1.8 µM | 3.96 µM | 1.82 | 3.9 µM | 0.505 | 2.54 µM | 1.66 µM | 3.22 µM | 2.17 µM | 5.19 µM | 3.24 µM | 10.1 µM | 1.56 | 3.24 µM
5 | O=C(Oc1ccc2c(c1)CN(Cc1ccccc1)CO2)c1ccccc1 | – | 30.7 µM | – | 40.6 µM | – | 36.7 | – | 22.3 µM | – | 33.6 µM | – | 52.7 µM | – | 30.4 µM | – | 41.2 µM | – | 34 µM | – | 34.1 µM
6 | O=NN(CCCl)C(=O)NC1CCCCC1 | 32 | 33.9 µM and 65.9 µM and 68.6 µM | 45.6 µM and 92.2 µM | 184 µM and 244 µM | – | 132 | 12.5 µM and 42.5 µM | 26.1 µM and 75.4 µM and 83.2 µM | 247 | 168 µM and 363 µM | 27.1 | 40.8 µM and 122 µM and 73.9 µM | 18.1 µM and 76.4 µM | 32.9 µM and 102 µM and 143 µM | 24.1 µM and 66.1 µM | 46.5 µM and 144 µM and 99.2 µM | 43.1 µM and 149 µM | 162 µM and 232 µM | – | 118 µM and 194 µM
